How the values were obtained:
PC-3 cells [1] = assay: Percentage of intact cells (Hoechst 33342 / propidium iodide counting), PC-3; format: cell-based, human; details: for Concentrations decreasing cell viability / number of intact cells: PC-3, 48 h, tested 10–500 µM; for Effect of caspase inhibitor on LCA-induced cell death: PC-3, 24 h co-exposure, 50 µM LCA + 10 µM inhibitor
Description: (§1) For apoptotic and necrotic cell death measurements, LNCaP and PC-3 cells were seeded at densities of 1 × 10^5 and 0.5 × 10^5 cells/ml, respectively, in 24-well plates in 2% stripped-FBS. Cells were then treated with several concentrations of bile acids in the presence (LNCaP) or absence (PC-3) of 0.1 nM DHT. […] After a 15 min incubation at 37°C, cells were observed and counted under a Nikon Eclipse (TE-2000U) inverted fluorescent microscope at 20× magnification. […] To measure mitochondrial membrane potential (MMP), cells were treated with LCA for 1, 4 or 8 h, and tetramethylrhodamine ethyl ester (TMRE) was added to each well at a final concentration of 50 nM. TMRE is a cell permeable, positively charged dye that accumulates in active negatively charged mitochondria.
(§2) All experiments were performed in at least triplicate using cells after various passages and the data are presented as mean ± SEM. Statistically significant differences (p < 0.05) between various treatments and untreated cells were determined using a two-tailed Student t-test with Bonferroni correction for multiple comparisons. IC50 values for inhibition of cell viability were calculated using a sigmoidal curve-fitting model of log-inhibitor concentration versus normalized inhibition response, with variable slope (GraphPad Prism v5.03, GraphPad Software, San Diego, CA).

LNCaP cells [2] = assay: Percentage of intact cells (Hoechst 33342 / propidium iodide counting), LNCaP; format: cell-based, human; details: for Concentrations decreasing cell viability / number of intact cells: 48 h, tested 10–500 µM; for Effect of caspase inhibitor on LCA-induced cell death: 24 h co-exposure, 40 µM LCA + 10 µM inhibitor
Description: as §1, §2

PC-3 cells [3] = system: PC-3 cells; parameters: method as in Choi et al., 2003; details: ref Choi et al., 2003; cited from earlier work
LNCaP cells [4] = assay: Western blot of apoptosis proteins, LNCaP; format: cell-based, human; details: 24 h, 25–75 µM
Description: (§3) Crude protein extracts (50 µg) were resolved by electrophoresis using 10% sodium dodecyl sulfate-polyacrylamide gels and then transferred to a PVDF Immobilon-P membrane (Bio-Rad, Mississauga, ON). Blots were blocked using 5% milk powder (Selection brand, Marché Jean-Talon, Montréal, QC) and incubated with antibodies as follows: 1:250 dilution for anti-caspase-3, 1:1000 for anti-cleaved PARP, 1:1000 for anti-Bcl-2, 1:1000 for anti-Bax, and 1:1000 for anti-Bid. Immunoreactive proteins were exposed to anti-rabbit horseradish peroxidise-conjugated secondary antibodies (Millipore) that were diluted 1:5000. Antigen-antibody complexes were detected using Immobilon ECL Western Chemiluminescent HRP Substrate (Millipore) and recorded with a Versadoc imaging system (Bio-Rad). Total protein content per well was determined using 1 × Amido Black staining solution (Sigma-Aldrich).

[5] = system: LNCaP human prostate cancer cells; assay: Extra/intracellular distribution by mass spectrometry, LNCaP; format: in vitro ADME; details: for % of compound recovered, Cells / % of compound recovered, Medium: LNCaP, 24 h, mean ± SD
Description: (§4) Mass spectrometry-based analysis of LCA and UDCA was performed as previously reported ([Bourque & Titorenko, 2009]). […] The extracted lipids were dried under nitrogen and resuspended in chloroform. Immediately prior to injection the extracted lipids were combined with a 2:1 methanol:chloroform mixture supplemented with 0.1% (v/v) ammonium hydroxide. The sample was injected directly into a Thermo Orbitrap Velos equipped with a HESI-II ion source (Thermo Scientific, Waltham, MA, USA) at a flow rate of 5 µl/min. Spectra were obtained in negative-ion mode. The source voltage was set to 4.0 kV, a capillary temperature of 275°C, a sheath gas flow of 5 (arbitrary units) and an auxiliary gas flow of 1 (arbitrary units). Acquired spectra were exported from Xcalibur software (Thermo Scientific) and then deconvoluted and deisotoped using Excel macros.

RWPE-1 cells = assay: Percentage of intact cells (Hoechst 33342 / propidium iodide counting), RWPE-1; format: cell-based, human; details: RWPE-1, 48 h, 50 or 75 µM
[6] = system: PC-3 human prostate cancer cells; assay: Extra/intracellular distribution by mass spectrometry, PC-3; format: in vitro ADME; details: for % of compound recovered, Cells / % of compound recovered, Medium: 24 h, mean ± SD
Description: as §4

caspase-8 [7] = assay: Caspase-8 activity (Ac-IETD-AFC cleavage) in LNCaP cell extracts; format: cell-based, human; details: 24 h, 25–75 µM
Description: (§5) PC-3 and LNCaP cells were seeded in 6-well plates at densities of 400000 or 750000 cells per well, respectively, in 0.5 ml culture medium containing 2% stripped FBS and 24 h later they were exposed to various concentrations of LCA in fresh medium for another 24 h. Proteins were then extracted from harvested cells using 1× RIPA buffer (Millipore, Billerica, MA) containing 1× protease inhibitor cocktail, centrifuged at 13,000 g for 5 min at 4°C to remove cell debris, and frozen at −80°C overnight. Protein concentrations were then quantified using a BCA protein detection kit (Thermo Scientific, Waltham, MA). Caspase activities were determined using fluorogenic caspase substrates selective for either caspase-3 (5 µM Ac-DEVD-AFC), caspase-9 (10 µM Ac-LEHD-AFC) or caspase-8 (10 µM Ac-IETD-AFC) in 10 µg of extracted protein suspended in caspase reaction buffer (20 mM PIPES at pH 7.2, 30 mM NaCl, 10 mM DTT, 1 mM EDTA, 0.1% CHAPS, 10% sucrose). The time-dependent release of 7-amino-4-trifluoromethyl coumarin (AFC) was measured using a SpectroMax M5 microplate reader (Molecular Devices, Sunnydale, CA) at an excitation wavelength of 400 nm and an emission wavelength of 505 nm. Measurements were recorded at 2 min intervals for 90 min. A standard curve of AFC fluorescence was used to calculate the amount of AFC released (in picomoles) during each reaction.

LNCaP cells [8] = assay: DHT-stimulated LNCaP cell proliferation (real-time impedance, E-plates); format: cell-based, human
caspase-9 [9] = assay: Caspase-9 activity (Ac-LEHD-AFC cleavage) in LNCaP cell extracts; format: cell-based, human; details: 24 h, 25–75 µM
Description: as §5

PC-3 cells [10] = assay: Western blot of apoptosis proteins, PC-3; format: cell-based, human; details: PC-3, 24 h
Description: as §3

PC-3 cells [11] = assay: Mitochondrial membrane potential (TMRE), PC-3; format: cell-based, human; details: PC-3, 75 µM, as early as after 1 h
caspase-3 [12] = assay: Caspase-3 activity (Ac-DEVD-AFC cleavage) in PC-3 cell extracts; format: cell-based, human; details: PC-3, 24 h, 25–75 µM
Description: as §5

caspase-3 [13] = assay: Caspase-3 activity (Ac-DEVD-AFC cleavage) in LNCaP cell extracts; format: cell-based, human; details: 24 h, 25–75 µM
Description: as §5

caspase-9 [14] = assay: Caspase-9 activity (Ac-LEHD-AFC cleavage) in PC-3 cell extracts; format: cell-based, human; details: PC-3, 24 h, 25–75 µM
Description: as §5

caspase-8 [15] = assay: Caspase-8 activity (Ac-IETD-AFC cleavage) in PC-3 cell extracts; format: cell-based, human; details: PC-3, 24 h, 25–75 µM
Description: as §5

C[C@H](CCC(=O)O)[C@H]1CC[C@H]2[C@@H]3[C@H](O)C[C@@H]4C[C@H](O)CC[C@]4(C)[C@H]3CC[C@]12C [CDCA, chenodeoxycholic acid]
Concentrations decreasing cell viability / number of intact cells (PC-3 cells [1]): above 100 µM | Concentrations decreasing cell viability / number of intact cells (LNCaP cells [2]): above 100 µM | Concentrations that did not result in significant cell death (PC-3 cells [3]): > 100 µM

C[C@H](CCC(=O)O)[C@H]1CC[C@H]2[C@@H]3CC[C@@H]4C[C@H](O)CC[C@]4(C)[C@H]3CC[C@]12C [LCA, Lithocholic acid]
IC50 (PC-3 cells [1]; Homo sapiens, PC-3, 48 h treatment, read-out: IC50 for decrease in number of intact cells): 74.9 ± 0.25 µM | IC50 (LNCaP cells [2]; Homo sapiens, 48 h treatment, with 0.1 nM DHT, read-out: IC50 for decrease in number of intact cells): 40.5 ± 0.07 µM | Effect on pro-apoptotic proteins Bax and Bid (LNCaP cells [4]): cleavage | Levels of 89 kDa PARP fragment (LNCaP cells [4]): significantly elevated | Levels of cleaved, active 17 and 20 kDa caspase-3 subunits (LNCaP cells [4]): increased levels | % of nominal concentration present in extracellular medium ([5]; LNCaP cultures after 24 h): ≤ 98% | % of compound recovered, Cells ([5]; 25 µM): 2.72 ± 1.10% | % of compound recovered, Medium ([5]; 25 µM): 97.28 ± 1.10% | % of compound recovered, Cells ([5]; 50 µM): 5.85 ± 2.45% | % of compound recovered, Medium ([5]; 50 µM): 94.15 ± 2.45% | Effect on viability of non-tumorigenic cells (RWPE-1 cells): without decreasing the viability | % of compound recovered, Cells ([6]; PC-3, 50 µM): 2.09 ± 0.05% | % of compound recovered, Medium ([6]; PC-3, 50 µM): 97.91 ± 0.05% | % of compound recovered, Cells ([6]; PC-3, 75 µM): 2.39 ± 1.93% | % of compound recovered, Medium ([6]; PC-3, 75 µM): 97.61 ± 1.93% | % of nominal concentration present in extracellular medium ([6]; PC-3 cultures after 24 h): ≤ 98% | Levels of active caspase-8 (caspase-8 [7]): increased levels | IC50 (LNCaP cells [8]; Homo sapiens, LNCaP, co-treated with 0.1 nM DHT, 72 h, read-out: IC50 for inhibition of proliferation of androgen-stimulated cells): 8.5 µM | Concentrations that inhibit proliferation of AD prostate cancer cells (LNCaP cells [8]; well below those needed to induce apoptosis): 2.5 to 10 µM | Caspase-9 activity (caspase-9 [9]): statistically significant increases | Levels of 89 kDa PARP fragment elevated (PC-3 cells [10]): not in PC-3 cells | Bcl-2 levels (PC-3 cells [10]; 25–75 µM): decreased levels | Effect on pro-apoptotic proteins Bax and Bid (PC-3 cells [10]; 25–75 µM): cleavage | Levels of cleaved, active 17 and 20 kDa caspase-3 subunits (PC-3 cells [10]; 25–75 µM): increased levels | Change in mitochondrial membrane potential (MMP) (PC-3 cells [11]): marked decrease | Catalytic activity of caspase-3 (caspase-3 [12]): increased | Catalytic activity of caspase-3 (caspase-3 [13]): increased | Caspase-9 activity (caspase-9 [14]): statistically significant increases | Levels of active caspase-8 (caspase-8 [15]): increased levels

z-DEVD-fmk
Effect of caspase inhibitor on LCA-induced cell death (PC-3 cells [1]): partially inhibited | Effect of caspase inhibitor on LCA-induced cell death (LNCaP cells [2]): partially inhibited

C[C@H](CCC(=O)O)[C@H]1CC[C@H]2[C@@H]3[C@@H](O)C[C@@H]4C[C@H](O)CC[C@]4(C)[C@H]3CC[C@]12C [UDCA, ursodeoxycholic acid, reference compound]
Concentrations decreasing cell viability / number of intact cells (PC-3 cells [1]): above 300 µM | Concentrations decreasing cell viability / number of intact cells (LNCaP cells [2]): above 300 µM | % of compound recovered, Cells ([5]; 25 µM): 9.60 ± 3.86% | % of compound recovered, Medium ([5]; 25 µM): 90.40 ± 3.86% | % of compound recovered, Cells ([5]; 50 µM): 4.23 ± 0.10% | % of compound recovered, Medium ([5]; 50 µM): 95.77 ± 0.10% | % of compound recovered, Cells ([6]; PC-3, 50 µM): 2.44 ± 0.17% | % of compound recovered, Medium ([6]; PC-3, 50 µM): 97.56 ± 0.17% | % of compound recovered, Cells ([6]; PC-3, 75 µM): 2.43 ± 0.67% | % of compound recovered, Medium ([6]; PC-3, 75 µM): 97.57 ± 0.67% | Concentrations that did not result in significant cell death (PC-3 cells [3]): > 100 µM

C[C@H](CCC(=O)O)[C@H]1CC[C@H]2[C@@H]3[C@H](O)C[C@@H]4C[C@H](O)CC[C@]4(C)[C@H]3C[C@H](O)[C@]12C [CA, cholic acid]
Concentrations decreasing cell viability / number of intact cells (PC-3 cells [1]): > 500 µM | Concentrations decreasing cell viability / number of intact cells (LNCaP cells [2]): > 500 µM

C[C@H](CCC(=O)O)[C@H]1CC[C@H]2[C@@H]3C[C@H](O)[C@@H]4C[C@H](O)CC[C@]4(C)[C@H]3CC[C@]12C [HDCA, hyodeoxycholic acid]
Concentrations decreasing cell viability / number of intact cells (PC-3 cells [1]): above 300 µM | Concentrations decreasing cell viability / number of intact cells (LNCaP cells [2]): above 300 µM

C[C@H](CCC(=O)O)[C@H]1CC[C@H]2[C@@H]3CC[C@@H]4C[C@H](O)CC[C@]4(C)[C@H]3C[C@H](O)[C@]12C [DCA, deoxycholic acid]
Concentrations decreasing cell viability / number of intact cells (PC-3 cells [1]): above 100 µM | Concentrations decreasing cell viability / number of intact cells (LNCaP cells [2]): above 100 µM

z-IETD-fmk
Effect of caspase inhibitor on LCA-induced cell death (PC-3 cells [1]): alleviated | Effect of caspase inhibitor on LCA-induced cell death (LNCaP cells [2]): alleviated

— PMC3740138, “Bile acids induce apoptosis selectively in androgen-dependent and -independent prostate cancer cells” (PeerJ, 2013)
